The results in this text go back to patent publication US20240285728A1, “TARGETED PROTEIN DELIVERY TO MAMMALIAN EMBRYOS AND THERAPEUTIC APPLICATIONS USING EXOSOMES” (University of Maryland, Baltimore, priority 2021, published 2024).

The test system of data set [1] is exosome production in the developing embryos. Nature of the data set: Exosome profile, exosome numbers and CD63 expression in E8.5 embryos after GW4869 injections. The class given is in vivo, mouse. The method, then: Mouse models of diabetic embryopathy. […] NTDs were examined at E10.5.
Exosome extraction and labelling. Cells and debris were removed from cell culture media via centrifugation at 2000×g for 30 minutes at 4° C. Supernatants containing the cell-free culture media were transferred to a new tube without disturbing the pellet. Total Exosome Isolation (#4478359, Invitrogen, Carlsbad, CA) at 0.5 volume of the collected supernatants was added to each tube. The cell culture media/reagent mixture was mixed well via vortex and pipetting up and down until it became a homogenous solution, and then was incubated at 4° C. overnight. After incubation, the samples were centrifuged at 10,000×g for 1 hour at 4° C. and the supernatants were discarded. Exosomes were contained in the pellet at the bottom of the tube (not visible in most cases). The pellet was re-suspended in 1 ml of 1×PBS, and NanoSight (#NS300, Malvern Panalytical) was used to measure the exosomes. The presence of exosomes was confirmed by Western blot using the exosomal marker CD63 (Santa Cruz Biotechnology, Dallas, TX). Exosomes were suspended in 1 ml Diluent C (Sigma, St Louis, MO) and labeled by incubating with PKH67 fluorescent dye (Sigma, St Louis, MO) for 5 min in the dark at room temperature. […]

For data set [2] the following is noted: mouse, in vivo.
Description: Briefly, ten-week old female mice were intravenously injected daily with 75 mg/kg STZ over two days to induce diabetes. Diabetes was defined as 12 hours fasting blood glucose level of ≥250 mg/dL. Male and female mice were paired at 3:00 PM, and day 0.5 (E0.5) of pregnancy was established by the presence of the vaginal plug at 8:00 AM the next morning. Female mice injected with vehicle served as the nondiabetic controls. On E7.5, E8.5, E9.5 or E10.5 mice were euthanized and conceptuses were dissected out of the uteri for biochemical and molecular analysis. The exosome inhibitor GW4869 (Sigma, St, Louis, MO) was injected daily to nondiabetic pregnant dams from E7.0 to E8.0. NTDs were examined at E10.5.
The test system of data set [3] is (p)-PERK, (p)-IRE1α, (p)-eIF2α and CHOP. To be noted: mouse, in vivo.
Description: (§2) Mouse models of diabetic embryopathy. The mouse model of diabetic embryopathy was described previously [4,22,36,45,46]. Briefly, ten-week old female mice were intravenously injected daily with 75 mg/kg STZ over two days to induce diabetes. Diabetes was defined as 12 hours fasting blood glucose level of ≥250 mg/dL. Male and female mice were paired at 3:00 PM, and day 0.5 (E0.5) of pregnancy was established by the presence of the vaginal plug at 8:00 AM the next morning. Female mice injected with vehicle served as the nondiabetic controls. On E7.5, E8.5, E9.5 or E10.5 mice were euthanized and conceptuses were dissected out of the uteri for biochemical and molecular analysis.
(§3) Immunoblotting. Immunoblotting was performed as described by Yang at el [4]. Lysis buffer (Cell Signaling Technology, Danvers, MA) containing a protease inhibitor cocktail (Sigma, St Louis, MO) was used to extract protein. Equal amounts of protein and Precision Plus Protein Standards (Bio-Rad, Hercules, CA) were resolved by SDS-PAGE and transferred onto Immunobilon-P membranes (Millipore, Billerica, MA). […] Signals were detected using the SuperSignal West Femto Maximum Sensitivity Substrate kit (Thermo Fisher Scientific, Waltham, MA). […]
Data set [4] has as its system embryos of nondiabetic dams. Particulars: mouse, in vivo.
Description: Mouse models of diabetic embryopathy. […] Briefly, ten-week old female mice were intravenously injected daily with 75 mg/kg STZ over two days to induce diabetes. Diabetes was defined as 12 hours fasting blood glucose level of ≥250 mg/dL. Male and female mice were paired at 3:00 PM, and day 0.5 (E0.5) of pregnancy was established by the presence of the vaginal plug at 8:00 AM the next morning. Female mice injected with vehicle served as the nondiabetic controls. On E7.5, E8.5, E9.5 or E10.5 mice were euthanized and conceptuses were dissected out of the uteri for biochemical and molecular analysis. The exosome inhibitor GW4869 (Sigma, St, Louis, MO) was injected daily to nondiabetic pregnant dams from E7.0 to E8.0. NTDs were examined at E10.5.
Statistical analyses. Data were presented as means±standard errors (SE). In animal studies, experiments were repeated at least three times, and embryonic samples from each replicate were from different dams. Statistical differences were determined by one-way analysis of variance (ANOVA) using the SigmaPlot 12.5 (SigmaStat, San Jose, CA). In one-way ANOVA analysis, Tukey test was used to estimate the significance of the results (P<0.05). The Chi square test and Fisher Exact test were used to estimate the significance of NTD incidence.
A further data set concerns neuroepithelial cells. To be noted: mouse, in vivo.
Data set [5] relates to Fgf2 promoter in yolk sac endoderm PYS2 cell line. Nature of the data set: Fgf2 promoter luciferase reporter activity under high glucose. The class given is cell-based. Particulars: suppressed by high glucose (25 mM glucose), PYS2 cells. As for the experimental part: (§1) Cell culture and transfection. The C17.2 mouse neural stem cell line from the European Collection of Cell Culture (Salisbury, UK) and the yolk sac endoderm PYS2 cell line (ATCC® CRL2745™) were maintained in DMEM (5 mM glucose) supplemented with 10% FBS, 100 U/ml penicillin, and […] streptomycin at 37° C. in a humidified atmosphere of 5% CO2. Mouse recombinant FGF2 (#3139-FB; R&D Systems, Minneapolis, MN) was used at a final concentration of 10 ng/ml. Lipofectamine 2000 (Invitrogen, Carlsbad, CA) was used according to the manufacturer's protocol for transfection of siFGF2 and control siRNA (Invitrogen, Carlsbad, CA) into the cells. After seeding for 12 h, cells were transfected with recombinant FGF2 and cultured in 1% FBS for 8 h, after which cells were cultured in 10% FBS and collected after 48 h for analysis.
In general terms: A reporter such as luciferase makes a cellular process visible.

Data set [6] deals with isolated E8 Flk-1^+ progenitors. Nature of the data set: Survivin protein in exosomes of isolated E8 Flk-1+ progenitors. The class given is cell-based, mouse. Particulars: high glucose. The method, then: Isolation of Flk-1+ endothelial progenitor cells. Flk-1^+ progenitor cells were isolated from the E8 yolk sac. Yolk sacs were minced in phosphate-buffered saline PBS (Thermo Fisher Scientific, Waltham, MA), digested with 1 mg/ml of collagenase type I (Sigma, St Louis, MO) and incubated on an orbital shaker at 37° C. for 30-45 min. Following the collagenase treatment, cells were washed twice with growth medium (EBM-2, fetal bovine serum (10%), hFGF-basic (0.5 ml), hydrocortisone (0.2 ml), VEGF (0.5 ml), IGF-1 (0.5 ml), ascorbic acid (0.5 ml), hEGF (0.5 ml), GA-100 (0.5 ml)) before being plated. Cells were trypsinized (Lonza, Walkersville, MD) and sorted for Flk-1 with MACS microbeads (Miltenyi Biotec, Bergisch Gladbach, Germany) as per the kit instructions. The Flk-1^+ progenitor cells were collected and cultured in growth medium as mentioned above.
Exosome extraction and labelling. Cells and debris were removed from cell culture media via centrifugation at 2000×g for 30 minutes at 4° C. Supernatants containing the cell-free culture media were transferred to a new tube without disturbing the pellet. Total Exosome Isolation (#4478359, Invitrogen, Carlsbad, CA) at 0.5 volume of the collected supernatants was added to each tube. […]

The subject of a further data set is Survivin promoter. As to the kind of experiment: Luciferase reporter activity driven by the Survivin promoter. The class given is cell-based. The method, then:
as §1

The next data set has as its system yolk sac cell line. As to the kind of experiment: Exosome number and Survivin protein in exosomes of a yolk sac cell line. The class given is cell-based. The method, then: as §1
Exosome extraction and labelling. Cells and debris were removed from cell culture media via centrifugation at 2000×g for 30 minutes at 4° C. Supernatants containing the cell-free culture media were transferred to a new tube without disturbing the pellet. Total Exosome Isolation (#4478359, Invitrogen, Carlsbad, CA) at 0.5 volume of the collected supernatants was added to each tube. The cell culture media/reagent mixture was mixed well via vortex and pipetting up and down until it became a homogenous solution, and then was incubated at 4° C. overnight. […]

The next data set concerns Survivin. Nature of the data set: Survivin mRNA and protein expression in normal and high glucose culture. The class given is cell-based. To be noted: normal glucose 5 mM / high glucose 25 mM culture. As for the experimental part:
as §1
Real-time PCR (RT-PCR). mRNA was isolated from embryos using the RNeasy Mini kit (Qiagen, Hilden, Germany), and then reversely transcribed using the high-capacity cDNA archive kit (Applied Biosystem, Grand Island, NY). Real time-PCR for Fgf2, Fgfr, Bmp4, Vegfr2, mVegfr1, Calnexin, GRP94, PDIA, BiP, IRE1α, CHOP, Survivin and β-actin were performed using the Maxima SYBR Green/ROX qPCR Master Mix assay (Thermo Fisher Scientific, Waltham, MA) in the Step One Plus system (Applied Biosystem, Grand Island, NY).

Description for neuroepithelial cells: as §2, §3

Turning to `O=C(/C=C/c1ccc(/C=C/C(=O)Nc2ccc(C3=NCCN3)cc2)cc1)Nc1ccc(C2=NCCN2)cc1` [GW4869], in [1], the “exosome production in the developing embryos” value is “inhibited”. In addition, in [2], the “detection in the embryo” value is listed as “reached the embryo”. Besides, the “ER stress in neurulation stage embryos” value in data set [3] is recorded as “triggered”. In addition, in [4], the “NTD Embryos” value was determined as 7, the NTD induction entry was “mimicked the teratogenic effect of maternal diabetes” and the NTD rate stood at 7.29%. Besides, in the data set on neuroepithelial cells, the neuroepithelial cell apoptosis entry was “triggered”.
As to `O=C(O)C(Cc1c[nH]c2ccccc12)N1C(=O)c2ccccc2C1=O` (stereo not drawn) [RG108], the “Fgf2 promoter-driven luciferase activity” value in data set [5] is given as “restored”.
Take “FGF2: recombinant fibroblast growth factor 2, used at 10 ng/ml”: the “Survivin expression in exosomes” value in data set [6] is on record as “abolished this suppression”. Besides, the “luciferase reporter activity driven by the Survivin promoter” value in the data set with Survivin promoter was “stimulated”. Moreover, in the data set on yolk sac cell line, the “Survivin in exosomal cargo” value is reported as “rescued”. Moreover, the “Survivin mRNA and protein expression” value in the data set on Survivin was “normalized”.
